Test results reported in patent publication EP0632029A1, “Benzylidene hydantoin derivative, ultraviolet ray absorbent and external preparation for skin including the same” (SHISEIDO COMPANY LIMITED, priority 1993, dated 1995).

Key:
Assay type in all cases: physicochemical
[1] = UV absorption maximum in ethanol (characterisation of the examples); conditions: for ε: at λmax
[2] = Reaction with metal ion (colour change after FeCl₃); conditions: for color of the solution BEFORE ADDING FeCl₃: 0.1g in 10 ml of 99.5% ethyl alcohol; for color change of the solution AFTER ADDING FeCl₃: 0.1g in 10 ml of 99.5% ethyl alcohol plus 2 ml of 0.02% FeCl₃
Procedure: Reactivities with trivalent iron ion of the following compounds 1 to 3 as examples of the benzylidene hydantoin derivative and 2-hydroxy-4-methoxybenzophenone (comparison 1) and 2-hydroxy-5-methylphenylbenzotriazol (comparison 2) were tested. (Method)
0.1g of each compounds were dissolved in 10 ml of 99.5% ethyl alcohol and added 2 ml of 0.02% FeCl₃ (99.5% ethyl alcohol solution), respectively. After stirring, color change of the solution were observed.

[3] = Solubility
[4] = Ultraviolet ray absorption, 10ppm in ethanol, spectrophotometer; conditions: 10ppm in ethanol (99.5%), quartz cell 10mm
Procedure: Ultraviolet ray absorptivities of the compound 1, 3 and comparison (2-hydroxy-4-methoxybenzophenone; UV-A absorbent) were measured according to the following method.
The compound 1, 3 and the comparison compound were dissolved in ethanol (99.5%) so as to the concentration be 10ppm, and absorption were measured by using quartz cell (10mm×10mm) and the spectrophotometer UVIDEC-610 (JASCO CORPORATION).

λmax (ethanol) [1] [nm] | ε [1] | color of the solution BEFORE ADDING FeCl₃ [2] | color change of the solution AFTER ADDING FeCl₃ [2] | Solubility ([3]; CETYL-2-ETHYLHEXANOATE) [%] | Solubility ([3]; ETHANOL(99.5%)) [%] | Solubility ([3]; OLIVE OIL) [%] | absorption ([4]; WAVELENGTH 300 nm) | absorption ([4]; WAVELENGTH 310 nm) | absorption ([4]; WAVELENGTH 320 nm) | absorption ([4]; WAVELENGTH 330 nm) | absorption ([4]; WAVELENGTH 340 nm) | absorption ([4]; WAVELENGTH 350 nm) | absorption ([4]; WAVELENGTH 360 nm) | absorption ([4]; WAVELENGTH 370 nm) | absorption ([4]; WAVELENGTH 380 nm) | SMILES
 |  | LIGHT YELLOW | BROWNING | 0.2 | 0.65 | 0.4 |  |  |  |  |  |  |  |  |  | CCCCCCCCN1C(=O)NC(=Cc2ccc(OC)cc2)C1=O [COM. 1, 5-(4-methoxybenzylidene)-3-n-octyl hydantoin, reference compound]
336 | 32,500 | COLORLESS OR LIGHT YELLOW | NO CHANGE | 4 | 1.4 | 7 | 0.24 | 0.39 | 0.55 | 0.73 | 0.76 | 0.68 | 0.40 | 0.14 | 0.03 | CCCCC(CC)COc1ccc(C=C2NC(=O)N(CC(CC)CCCC)C2=O)cc1 (centres unmarked) [COMPOUND 3, 5-[4-(2-ETHYLHEXYLOXY)BENZYLIDENE]-3-(2-ETHYLEXYL) HYDANTOIN]
 |  |  |  |  |  |  | 0.39 | 0.35 | 0.40 | 0.42 | 0.34 | 0.20 | 0.11 | 0.03 | 0.00 | COc1ccc(C(=O)c2ccccc2)c(O)c1 [COMPARISON, 2-hydroxy-4-methoxybenzophenone, reference compound]
334 | 32,000 | COLORLESS OR LIGHT YELLOW | NO CHANGE | 2.1 | 1.2 | 3.2 | 0.36 | 0.53 | 0.74 | 0.95 | 0.94 | 0.80 | 0.40 | 0.10 | 0.02 | CCCCC(CC)CN1C(=O)NC(=Cc2ccc(OC)cc2)C1=O (centres unmarked) [COMPOUND 1, 5-(4-METHOXYBENZYLIDENE)-3-(2-ETHYLHEXYL) HYDANTOIN]

SMILES | λmax (ethanol) [1] [nm] | ε [1] | color of the solution BEFORE ADDING FeCl₃ [2] | color change of the solution AFTER ADDING FeCl₃ [2] | Solubility ([3]; CETYL-2-ETHYLHEXANOATE) [%] | Solubility ([3]; ETHANOL(99.5%)) [%] | Solubility ([3]; OLIVE OIL) [%] | absorption ([4]; WAVELENGTH 300 nm) | absorption ([4]; WAVELENGTH 310 nm) | absorption ([4]; WAVELENGTH 320 nm) | absorption ([4]; WAVELENGTH 330 nm) | absorption ([4]; WAVELENGTH 340 nm) | absorption ([4]; WAVELENGTH 350 nm) | absorption ([4]; WAVELENGTH 360 nm) | absorption ([4]; WAVELENGTH 370 nm) | absorption ([4]; WAVELENGTH 380 nm)
COc1ccc(C=C2NC(=O)N(CCCCCCCCCCCCCCCC(C)C)C2=O)cc1 [compound 2, 5-(4-METHOXYBENZYLIDENE)-3-[…]] | 334 | 31,500 | COLORLESS OR LIGHT YELLOW | NO CHANGE | 14 | 4.0 | 17 |  |  |  |  |  |  |  |  | 
